Active and inactive are the calls of the source. The rule behind the calls is not given here.
Tests used:
Mus musculus [1] = assay: In vivo inhibition of ERGlu2 in BALB/c mouse assessed as increase in mono-glucosylated FOS level in serum at 100 mg/kg, po administered via gavage starting at 8 hrs post-infection and continuing tid for 5 days and measured at 8 hrs post-final dose by NP-HPLC analysis; format: functional, organism-based
Influenza A virus [2] = assay: Antiviral activity against Influenza A virus (A/Texas/36/1991(H1N1)) infected in BALB/c mouse assessed as animal survival at 500 mg/kg, po administered via gavage as three doses at 8, 32 and 56 hrs post infection (reference value: 0%); format: functional
Influenza A virus [3] = assay: Antiviral activity against Influenza A virus (A/Texas/36/1991(H1N1)) infected in BALB/c mouse assessed as animal survival at 750 mg/kg, po administered via gavage as single dose at 24 hrs post infection (reference value: 0%); format: functional
Influenza A virus [4] = assay: Antiviral activity against Influenza A virus (A/Texas/36/1991(H1N1)) infected in BALB/c mouse assessed as median death time at 750 mg/kg, po administered via gavage as two doses at 8 hrs and 32 hrs post infection (reference value: 9 days); format: functional
Influenza A virus [5] = assay: Antiviral activity against Influenza A virus (A/Texas/36/1991(H1N1)) infected in BALB/c mouse assessed as median death time at 750 mg/kg, po administered via gavage as three dosed at 8, 32 and 56 hrs post infection (reference value: 8 days); format: functional
Influenza A virus [6] = assay: Antiviral activity against Influenza A virus (A/Texas/36/1991(H1N1)) infected in BALB/c mouse assessed as median death time at 750 mg/kg, po administered via gavage as single dose at 24 hrs post infection (reference value: 8.5 days); format: functional
dengue virus type 2 [7] = assay: Antiviral activity against Dengue virus 2 S221 infected in DENV antibody dependent enhancement AG129 mouse model assessed as animal survival at 375 mg/kg, po administered via gavage as two doses at 8 and 24 hrs post infection (reference value: 4%); format: functional
dengue virus type 2 [8] = assay: Antiviral activity against Dengue virus 2 S221 infected in DENV antibody dependent enhancement AG129 mouse model assessed as animal survival at 750 mg/kg, po administered via gavage as two doses at 8 and 24 hrs post infection (reference value: 4%); format: functional
dengue virus type 2 [9] = assay: Antiviral activity against Dengue virus 2 S221 infected in DENV antibody dependent enhancement AG129 mouse model assessed as animal survival at 500 mg/kg, po administered via gavage as two doses at 36 and 52 hrs post infection (reference value: 4%); format: functional
dengue virus type 2 [10] = assay: Antiviral activity against Dengue virus 2 S221 infected in DENV antibody dependent enhancement AG129 mouse model assessed as reduction in viremia at 750 mg/kg, po administered via gavage as single dose at 36 hrs post infection measured within 8 hrs by qRT-PCR analysis; format: functional
dengue virus type 2 [11] = assay: (§1) Antiviral activity against Dengue virus 2 S221 infected in DENV antibody dependent enhancement AG129 mouse model assessed as reduction in IFN-gamma level at 750 mg/kg, po administered via gavage as two doses at 36 hrs and 52 hrs post infection measured at 60 hrs post-infection by electrochemiluminescence based method; format: functional, organism-based
dengue virus type 2 [12] = assay: as §1, with “IL-10” for “IFN-gamma”; format: functional, organism-based
dengue virus type 2 [13] = assay: as §1, with “KC-GRO” for “IFN-gamma”; format: functional, organism-based
dengue virus type 2 [14] = assay: as §1, with “IL-10” for “IFN-gamma”, “single dose” for “two doses”, “36” for “36 hrs and 52”, “72” for “60”; format: functional, organism-based
dengue virus type 2 [15] = assay: as §1, with “KC-GRO” for “IFN-gamma”, “single dose” for “two doses”, “36” for “36 hrs and 52”, “72” for “60”; format: functional, organism-based
dengue virus type 2 [16] = assay: as §1, with “72” for “60”; format: functional, organism-based
dengue virus type 2 [17] = assay: as §1, with “IL-12/IL-23p40” for “IFN-gamma”, “72” for “60”; format: functional, organism-based
Mus musculus [18] = assay: In vivo inhibition of ERGlu1 in BALB/c mouse assessed as increase in tri-glucosylated FOS level in serum at 750 mg/kg, po administered via gavage as single dose and measured after 16 hrs by NP-HPLC analysis; format: functional, organism-based
Mus musculus [19] = assay: In vivo inhibition of ERGlu1 in BALB/c mouse assessed as increase in tri-glucosylated FOS level in spleen at 750 mg/kg, po administered via gavage as single dose and measured after 16 hrs by NP-HPLC analysis; format: functional, organism-based
Cynomolgus monkey = assay: In vivo inhibition of ERGlu1 in cynomolgus monkey assessed as increase in tri-glucosylated FOS at level in serum 128 to 258 mg/kg, po administered via gavage as single dose measured after 8 to 72 hrs by NP-HPLC analysis; format: functional, organism-based; conditions: Macaca fascicularis
dengue virus type 2 [20] = assay: Antiviral activity against Dengue virus 2 S221 infected in DENV antibody dependent enhancement AG129 mouse model assessed as reduction in viremia by measuring foci of BHK21 cells containing DENV E at 750 mg/kg, po administered via gavage as two doses at 36 hrs and 52 hrs post infection measured after titration of compound treated infected animal serum with BHK21 cells by TrueBlue staining based focus forming assay; format: functional, organism-based
dengue virus type 2 [21] = assay: as §1, with “TNF-alpha” for “IFN-gamma”, “single dose” for “two doses”, “36” for “36 hrs and 52”; format: functional, organism-based
dengue virus type 2 [22] = assay: as §1, with “TNF-lapha” for “IFN-gamma”; format: functional, organism-based
dengue virus type 2 [23] = assay: as §1, with “TNF-alpha” for “IFN-gamma”, “single dose” for “two doses”, “36” for “36 hrs and 52”, “52” for “60”; format: functional, organism-based
dengue virus type 2 [24] = assay: as §1, with “TNF-alpha” for “IFN-gamma”, “single dose” for “two doses”, “36” for “36 hrs and 52”, “72” for “60”; format: functional, organism-based
dengue virus type 2 [25] = assay: as §1, with “TNF-alpha” for “IFN-gamma”, “72” for “60”; format: functional, organism-based
Mus musculus [26] = assay: In vivo inhibition of ERGlu2 in BALB/c mouse assessed as increase in mono-glucosylated FOS level in spleen at 100 mg/kg, po administered via gavage starting at 8 hrs post-infection and continuing tid for 5 days and measured at 8 hrs post-final dose by NP-HPLC analysis; format: functional, organism-based
Mus musculus [27] = assay: In vivo inhibition of ERGlu2 in BALB/c mouse assessed as increase in mono-glucosylated FOS level in lung at 100 mg/kg, po administered via gavage starting at 8 hrs post-infection and continuing tid for 5 days and measured at 8 hrs post-final dose by NP-HPLC analysis; format: functional, organism-based
Mus musculus [28] = assay: In vivo inhibition of ERGlu1 in BALB/c mouse assessed as increase in mono-glucosylated FOS level in spleen at 100 to 1000 mg/kg, po administered via gavage at 8 hrs post-infection and measured at 8 hrs post-dose by NP-HPLC analysis; format: functional, organism-based

COCCCCCCCCCN1C[C@H](O)[C@@H](O)[C@H](O)[C@H]1CO.Cl
inhibition (Mus musculus [1]): Active
survival at 500 mg/kg (Influenza A virus [2]): 100%
survival at 750 mg/kg (Influenza A virus [3]): 30%
Time (Influenza A virus [4]): >14 days
Time (Influenza A virus [5]): >14 days
Time (Influenza A virus [6]): 10 days
survival at 375 mg/kg (dengue virus type 2 [7]): 82%
survival at 750 mg/kg (dengue virus type 2 [8]): 94%
survival at 500 mg/kg (dengue virus type 2 [9]): 86%
log(activity) (dengue virus type 2 [10]): >1
Activity (dengue virus type 2 [11]): Active
Activity (dengue virus type 2 [12]): Active
Activity (dengue virus type 2 [13]): Active
Activity (dengue virus type 2 [14]): Active
Activity (dengue virus type 2 [15]): Active
Activity (dengue virus type 2 [16]): Active
Activity (dengue virus type 2 [17]): Active
inhibition (Mus musculus [18]): Active
inhibition (Mus musculus [19]): Active
inhibition (Cynomolgus monkey): Active
Activity (dengue virus type 2 [20]): Active
Activity (dengue virus type 2 [21]): Active
Activity (dengue virus type 2 [22]): Active
Activity (dengue virus type 2 [23]): Active
Activity (dengue virus type 2 [24]): Active
Activity (dengue virus type 2 [25]): Active
inhibition (Mus musculus [26]): Active
inhibition (Mus musculus [27]): Active
inhibition (Mus musculus [28]): Active

Reference: ChEMBL document CHEMBL4402592, “Targeting Endoplasmic Reticulum α-Glucosidase I with a Single-Dose Iminosugar Treatment Protects against Lethal Influenza and Dengue Virus Infections” (J Med Chem, 2020)
